The values that follow come from patent US20060223846A1, “Aza-bridged-bicyclic amino acid derivatives as alpha4 integrin antagonists” (priority 2005, published 2006).

The subject of test [1] is oxazolone-induced contact hypersensitivity. As to conditions: 6 mg/kg, sc; mouse; cited from earlier work.
Test [2] addresses T1, α4β1 (Homo sapiens, UniProt P05556+P13612). The note with it: literature (Tamraz et al.); cited from earlier work.
Test [3] deals with heterotopic heart allograft. The note with it: hyperlipidemic rabbit; cited from earlier work.
Test [4] deals with circulating white blood cells (leukocytes). The experiment in a line: Leukocytosis Procedure. Type of test: in vivo, Balb/c mice. As to conditions: bled 1-1.5 hours after administration. An excerpt: Background: Leukocytosis is the increase in circulating white blood cells (leukocytes). Luekocytosis can be caused by preventing leukocyte binding to integrin counter-receptor adhesion molecules expressed on high endothelial venules. This cell adhesion occurs between immunoglobulin superfamily molecules and integrins. Relevant examples of these paired interactions include […] Adhesion Molecule-1 and αLβ2 integrin, Vascular Cell Adhesion Molecule-1 and α4β1 integrin, and Mucosal Addressin Cell Adhesion Molecule-1 and α4β7 integrin, respectively.
In this model, a compound that antagonizes these leukocyte-endothelial interactions will cause an increase in circulating leukocytes, defined as leukocytosis, as measured at 1-1.5 hours post-administration. This leukocytosis is indicative that normal lymphocyte or leukocyte emigration from the peripheral circulation was prevented. Similar emigration of cells out of the circulation into inflamed tissues is responsible for the progression and maintenance of the inflammatory state. Leukocytosis is an indication that lymphocyte and leukocyte extravasation is prevented, and is predictive of general anti-inflammatory activity.
1 week prior to being tested, 7-10 week old female Balb/c mice, n=8 per group, were bled and randomized according to leukocyte counts. One week later, the mice were administered a test compound orally or subcutaneously and then bled 1-1.5 hours after drug administration, approximately one hour after the peak blood concentration of the compound had occurred. Whole blood, 250-350 microliters, was collected from each mouse into potassium-EDTA serum collection tubes (Becton-Dickenson) and mixed to prevent clotting.
Cell counts and differential counts on the whole blood preparation were performed using an Advia 120 Hematology System (Bayer Diagnostics). Cell counts as total leukocytes and as total lympohcytes were made and compared to counts made from mice dosed with vehicle only. Data were reported as percent of vehicle control for lymphocyte counts and total leukocyte counts. Statistical analyses were performed using ANOVA with Dunnet's multiple comparison test

For test [5], the target named is T1, α4β1. The test can be described thus: Ramos Cell Adhesion Assay (α4β1 Mediated Adhesion/VCAM-1). Type of test: cell-based. Also noted: Ramos cells, (50 μL at 2×10^6/mL) labeled with 5 μM Calcein AM; endogenous in cells; host or cells: Ramos cells. The procedure:
(§1) Ramos Cell Adhesion Assay α4β1 Mediated Adhesion/VCAM-1) Immulon 9.6 well plates (Dynex) were coated with 100 μL recombinant hVCAM-1 at 4.0 μg/mL in 0.05 M NaCO3 buffer pH 9.0 overnight at 4° C. (R&D Systems). Plates were washed 3 times in PBS with 1% BSA and blocked for 1 h @ room temperature in this buffer. PBS was removed and compounds to be tested (50 μL) were added at 2× concentration. Ramos cells, (50 μL at 2×10^6/mL) labeled with 5 μM Calcein AM (Molecular Probes) for 1 h at 37° C., were added to each well and allowed to adhere for 1 h at room temperature. Plates were washed 3× in PBS+1% BSA and cells were lysed for 15 minutes in 100 μL of 1 M Tris pH 8.0 with 1% SDS. The plate was read at 485 nm excitation and 530 nm emission.

The target of the next test is T2, human α4β7 (Homo sapiens, UniProt P13612+P26010).
T2 construct: expressed in transfected cells
T2 sequence (P13612 34-1032): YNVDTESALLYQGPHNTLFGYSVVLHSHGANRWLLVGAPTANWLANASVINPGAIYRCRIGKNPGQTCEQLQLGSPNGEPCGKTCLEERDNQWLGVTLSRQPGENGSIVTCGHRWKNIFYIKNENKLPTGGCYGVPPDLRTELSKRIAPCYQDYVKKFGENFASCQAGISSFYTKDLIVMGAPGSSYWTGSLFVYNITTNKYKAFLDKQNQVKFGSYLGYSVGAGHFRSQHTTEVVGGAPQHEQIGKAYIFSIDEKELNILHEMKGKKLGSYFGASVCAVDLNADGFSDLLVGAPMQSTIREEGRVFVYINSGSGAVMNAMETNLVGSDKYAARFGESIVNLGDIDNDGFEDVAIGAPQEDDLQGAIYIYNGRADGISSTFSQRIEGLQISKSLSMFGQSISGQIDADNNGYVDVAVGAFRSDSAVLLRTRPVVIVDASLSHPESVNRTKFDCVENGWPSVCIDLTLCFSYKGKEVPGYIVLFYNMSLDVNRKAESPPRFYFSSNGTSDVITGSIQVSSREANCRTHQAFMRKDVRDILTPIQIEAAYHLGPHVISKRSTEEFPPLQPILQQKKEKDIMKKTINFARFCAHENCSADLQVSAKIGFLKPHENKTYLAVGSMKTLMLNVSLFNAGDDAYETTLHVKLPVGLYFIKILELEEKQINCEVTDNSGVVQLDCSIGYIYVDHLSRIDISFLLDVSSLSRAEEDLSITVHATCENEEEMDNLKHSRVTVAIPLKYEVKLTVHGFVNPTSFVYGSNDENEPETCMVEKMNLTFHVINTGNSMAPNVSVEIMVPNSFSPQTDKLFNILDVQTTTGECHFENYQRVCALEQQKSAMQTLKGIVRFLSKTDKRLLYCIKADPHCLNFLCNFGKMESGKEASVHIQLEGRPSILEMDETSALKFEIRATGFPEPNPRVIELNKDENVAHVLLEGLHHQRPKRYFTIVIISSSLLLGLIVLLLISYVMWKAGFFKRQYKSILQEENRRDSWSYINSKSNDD
T2 sequence (P26010 20-798): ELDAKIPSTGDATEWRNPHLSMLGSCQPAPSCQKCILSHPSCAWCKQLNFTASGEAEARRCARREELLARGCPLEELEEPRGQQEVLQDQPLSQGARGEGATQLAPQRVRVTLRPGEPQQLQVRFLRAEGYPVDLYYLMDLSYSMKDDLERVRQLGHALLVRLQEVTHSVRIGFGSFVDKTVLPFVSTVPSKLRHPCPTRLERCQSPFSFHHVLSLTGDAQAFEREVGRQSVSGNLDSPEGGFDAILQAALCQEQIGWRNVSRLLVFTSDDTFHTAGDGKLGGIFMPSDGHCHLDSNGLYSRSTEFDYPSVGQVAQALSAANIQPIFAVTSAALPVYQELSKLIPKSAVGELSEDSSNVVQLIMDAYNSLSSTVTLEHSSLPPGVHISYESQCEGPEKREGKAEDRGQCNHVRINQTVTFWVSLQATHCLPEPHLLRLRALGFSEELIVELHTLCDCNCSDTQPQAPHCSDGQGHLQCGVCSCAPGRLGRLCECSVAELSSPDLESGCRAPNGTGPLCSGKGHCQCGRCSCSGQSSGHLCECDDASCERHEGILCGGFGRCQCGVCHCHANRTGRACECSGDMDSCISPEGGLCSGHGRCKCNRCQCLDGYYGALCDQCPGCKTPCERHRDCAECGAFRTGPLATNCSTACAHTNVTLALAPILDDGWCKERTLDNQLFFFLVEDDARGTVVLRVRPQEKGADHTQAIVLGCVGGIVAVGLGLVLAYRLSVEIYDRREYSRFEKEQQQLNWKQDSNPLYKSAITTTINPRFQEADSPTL
The experiment in a line: α4β7-K562 Cell Adhesion Assay (α4β7 Mediated Adhesion/VCAM-1). Type of test: cell-based. The protocol: as §1, with “α4β7-K562” for “Ramos”, “(α4β7” for “α4β1”, “96” for “9.6”, “System).” for “Systems).”, “A stable cell line of K562 cells expressing human α4β7,” for “Ramos cells,”

Setting [6] is: Ramos cells on recombinant hVCAM-1, read-out: α4β1 IC50.
[7] abbreviates: K562 cells expressing human α4β7 on recombinant hVCAM-1, read-out: α4β7 IC50.

Where two headings read alike, the source gives them in different places.

T1 sequence (P05556 21-798, one chain of several): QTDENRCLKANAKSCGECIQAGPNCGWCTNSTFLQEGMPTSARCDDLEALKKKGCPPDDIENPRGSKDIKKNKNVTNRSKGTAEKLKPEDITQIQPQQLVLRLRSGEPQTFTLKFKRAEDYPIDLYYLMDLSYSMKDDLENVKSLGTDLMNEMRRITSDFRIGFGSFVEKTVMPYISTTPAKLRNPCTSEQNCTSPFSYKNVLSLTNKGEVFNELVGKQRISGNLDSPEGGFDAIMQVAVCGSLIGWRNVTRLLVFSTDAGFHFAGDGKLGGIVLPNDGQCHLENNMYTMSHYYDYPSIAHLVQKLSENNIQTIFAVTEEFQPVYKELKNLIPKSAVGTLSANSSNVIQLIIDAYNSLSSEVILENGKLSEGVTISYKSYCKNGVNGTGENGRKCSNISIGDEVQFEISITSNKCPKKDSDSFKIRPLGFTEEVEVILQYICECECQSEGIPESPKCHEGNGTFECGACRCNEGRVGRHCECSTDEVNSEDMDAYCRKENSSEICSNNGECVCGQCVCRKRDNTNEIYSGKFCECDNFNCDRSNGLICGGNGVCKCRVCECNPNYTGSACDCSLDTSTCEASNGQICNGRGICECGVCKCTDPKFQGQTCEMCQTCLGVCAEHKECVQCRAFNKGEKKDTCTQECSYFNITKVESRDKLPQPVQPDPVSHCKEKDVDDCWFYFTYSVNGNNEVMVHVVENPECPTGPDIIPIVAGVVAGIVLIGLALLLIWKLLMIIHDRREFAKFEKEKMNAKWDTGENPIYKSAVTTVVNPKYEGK

Take Phenylacetyl-Leu-Asp-Phe-D-Pro-NH2: the “efficacy in oxazolone-induced contact hypersensitivity” value in test [1] is recorded as “efficacy similar to the α4 antibody PS/2”. The IC50 on α4β1 [2] was 2000 nM. Also, in test [3], the “efficacy in heart allograft model” value is “effective”.

In the case of `O=C(Nc1ccc(CC(NC(=O)C2C3CCC(CC3)N2C(=O)CCc2ccccc2)C(=O)O)cc1)c1c(Cl)cncc1Cl` (centres unmarked) [Cpd 39], the “Lymphocyte Counts % of Vehicle Control” value in test [4] (3 mg/kg sc) is reported as 205.2 % of Vehicle Control; in test [4] (10 mg/kg sc), 150.3 % of Vehicle Control; in test [4] (30 mg/kg sc) it was 253.9 % of Vehicle Control. Besides, the results for the “Total Leukocyte Counts % of Vehicle Control” value in test [4] (3 mg/kg sc), in test [4] (10 mg/kg sc) and in test [4] (30 mg/kg sc) were 175.1 % of Vehicle Control, 134.3 % of Vehicle Control and 212.2 % of Vehicle Control, respectively. Also, the IC50 at α4β1 [5] (setting [6]) is 0.9 nM; at α4β1 [5] (repeated in leukocytosis table, unit inferred, read-out: α4β1), 0.9 nM; on human α4β7 (setting [7]), 7 nM; on human α4β7 (repeated in leukocytosis table, unit inferred, read-out: α4β7) it was 7 nM.

Turning to `O=C(Nc1ccc(CC(NC(=O)C2C3CCC(CC3)N2C(=O)CCN2CCCCC2)C(=O)O)cc1)c1c(Cl)cncc1Cl` (centres unmarked) [Cpd 43], the IC50 was 5 nM at α4β1 [5] (setting [6]) and 86 nM at human α4β7 (setting [7]).

In the case of `COc1ccccc1CC(=O)N1C2CCC(CC2)C1C(=O)NC(Cc1ccc(NC(=O)c2c(Cl)cncc2Cl)cc1)C(=O)O` (centres unmarked) [Cpd 29], the results for the IC50 at α4β1 [5] (setting [6]) and on human α4β7 (setting [7]) were 28 nM and 27 nM, respectively.

For `O=C(Nc1ccc(CC(NC(=O)C2C3CCC(CC3)N2C(=O)CCN2CCNCC2)C(=O)O)cc1)c1c(Cl)cncc1Cl` (centres unmarked) [Cpd 53], the IC50 on α4β1 [5] (setting [6]) was 3 nM; at human α4β7 (setting [7]) it was 141 nM.

With `O=C(Nc1ccc(CC(NC(=O)C2C3CCC(CC3)N2C(=O)Cc2c(Cl)cccc2Cl)C(=O)O)cc1)c1c(Cl)cncc1Cl` (centres unmarked) [Cpd 6], the IC50 is 234 nM on α4β1 [5] (setting [6]) and 387 nM at human α4β7 (setting [7]).

In the case of `O=C(Nc1ccc(CC(NC(=O)C2C3CCC(CC3)N2C(=O)c2c(Cl)cccc2Cl)C(=O)O)cc1)c1c(Cl)cncc1Cl` (centres unmarked) [Cpd 14], the IC50 on α4β1 [5] (setting [6]) and at human α4β7 (setting [7]) was above 5000 nM throughout.

`COc1ccc(OC)c(C(=O)N2C3CCC(CC3)C2C(=O)NC(Cc2ccc(NC(=O)c3c(Cl)cncc3Cl)cc2)C(=O)O)c1` (centres unmarked) [Cpd 8]: the IC50 is 188 nM on α4β1 [5] (setting [6]) and 1020 nM at human α4β7 (setting [7]).

Turning to `O=C(Nc1ccc(CC(NC(=O)C2C3CCC(CC3)N2C(=O)OCc2ccccc2)C(=O)O)cc1)c1c(Cl)cncc1Cl` (centres unmarked) [Cpd 42], the IC50 on α4β1 [5] (setting [6]) was 8 nM; on human α4β7 (setting [7]) it was 24 nM.

With `O=C(Nc1ccc(CC(NC(=O)C2C3CCC(CC3)N2C(=O)CCc2ccc(Cl)cc2)C(=O)O)cc1)c1c(Cl)cncc1Cl` (centres unmarked) [Cpd 51], the IC50 was 3 nM on α4β1 [5] (setting [6]) and 24 nM on human α4β7 (setting [7]).
